Values of other authors in publication PMC5548178 (Pharmacotherapy, 2016).
Read-outs that look alike come from different tables or passages of the source.

Experiments:
[1] = reported variability in healthy volunteers
[2] = system: P-glycoprotein (P-gp)
[3] = single-dose gemfibrozil 600 mg after 2 weeks of lopinavir 400 mg–ritonavir 100 mg twice daily; healthy volunteers
[4] = system: triglyceride levels

SMILES	AUC (mean ± SD) [1]	Substrate for the efflux transporter P-glycoprotein [2]	Reduction in gemfibrozil exposure (AUC0-∞) [3]	Mean change in triglyceride levels ([4]; HIV-infected patients receiving NNRTI-based cART)	Mean change in triglyceride levels ([4]; non–HIV-infected controls)
CC(C)(Oc1ccc(C(=O)c2ccc(Cl)cc2)cc1)C(=O)O [fenofibric acid]	92000 ± 26000 ng·h/mL	not a substrate			
Cc1ccc(C)c(OCCCC(C)(C)C(=O)O)c1 [gemfibrozil]			41%	–60.3%	–59.3%
